Patent publication US20050106213A1, “Resorption-controlled bone implants” (priority 2001, published 2005)

Columns and labels:
[1] = Solubility of Bafilomycin A1 in solvent for liquid phase preparation; type: physicochemical; conditions: at 2.0×10^−3 M
From the text: (§1) Bafilomycin A1 was first dissolved in DMSO solution (other solutions that can be used are methanol and ethanol), and then dispersed in a neutral phosphate solution (pH 7.4) prepared from Na2HPO4 and NaH2PO4.

osteoclasts [2] = experiment: Bafilomycin-doped CAP implant rods in young and non-ovx aged Brown Norway rats (comparison groups), histology; parameters: species or system rat; conditions: young control group and non-ovx aged group; observed even at 4 months in vivo
From the text: Ten-month old ovariectomized (ovx) virgin Brown Norway rats with were purchased from the National Institute on Aging (Bethesda, Md., USA), housed individually in light- and temperature-controlled rooms, and fed a restricted diet (6 pellets/day). These animals were kept for additional four months following the ovariectomy. Non-ovx virgin Brown Norway rats of the same age as the experimental rats at the time of implantation (fourteen months) were used as a control group for the ovx animals. Young virgin female Brown Norway rats (three months old) were used as another comparison group to assess the implant integration and resorption. The maintenance and use of animals were in accordance with the Canadian Council of Animal Care Guidelines.
Production of the CAP implant doped with bafilomycin was performed as described above, i.e., resorbable CAP based on the TTCP and DCPA chemistry. Bafilomycin in concentration of 75-100 μg per 250 μL of liquid neutral phosphate phase per 500 mg of CAP was used.
The implants were allowed to set to form pre-hardened implant rods. The implants were retrieved at 10 days, 1 month, 2 months, and 4 months post-surgery.

osteoclasts [3] = experiment: Bafilomycin-doped CAP implant rods in ovariectomized aged rats (model of osteoporosis), histology; type: in vivo, rat; conditions: ovx aged Brown Norway rats, 75-100 μg per 500 mg CAP
Method: Performance of the bafilomycin-doped implant was also assessed in a model of osteoporosis which utilizes ovarectomized aged rats. Successful integration of osseous implants with host bone tissue can be adversely affected by pathological bone conditions such as osteoporosis, which result in osteopenia due to disturbance of the balance between bone resorption and bone formation processes. Therefore, systemic bone loss due to estrogen deficiency may also affect bone growth and maintenance around the implants. Although current attention has been focused in the art on systemic fracture prevention and development of new therapies aimed at conserving bone mass, little emphasis has been given to increasing osteointegration of implants in osteoporotic defect site.
The effects of ovariectomy on bone tissue formation and resorption of proton pump inhibitor (Bafilomycin A1)—modified resorbable CAP cement implants in comparison to the controls were studied.
Ten-month old ovariectomized (ovx) virgin Brown Norway rats with were purchased from the National Institute on Aging (Bethesda, Md., USA), housed individually in light- and temperature-controlled rooms, and fed a restricted diet (6 pellets/day). These animals were kept for additional four months following the ovariectomy. […]

osteoclasts [4] = experiment: CAP cement rods or pastes doped with Bafilomycin A1 implanted in rat femur defects, histology; type: in vivo
From the text: The calcium phosphate precursor powder consisted of an equimolar mixture of DCPA and TTCP sterilized by gamma irradiation (20 kGy). Deionized double distilled water was obtained from a Millipore Milli-RO 10 Plus and Mill-Q UF Plus systems (Bedford, Mass., USA) operated at 18 MΩ resistance. The liquid phase was a neutral sodium hydrogen phosphate solution at pH 7.4, which was sterilized by filtration through 0.22 μm filters (Millipore Corp., Bedford, Mass., USA).
as §1
After Bafilomycin A1 was dispersed in the biphasic liquid phase, the liquid phase was added to one of the solid components of the CAP, dicalcium phosphate anhydrous (DCPA). The DCPA was dissolved in the liquid phase and left at room temperature for 2 min with continuous mixing.
Next, tetracalcium phosphate (TTCP) was gradually added to the first dissolved CAP component to produce a paste. The powder to liquid ratio (P/L) of the final CAP was 2.0 (wt/wt).
The pastes were either implanted or used for the preparation of rods. Cement rods (1.9 mm diameter×2.3 mm height) were shaped by allowing aliquots of packed CPC pastes to set in custom made Teflon® formers for 24 h at 37C and 100% humidity and subsequently for 48 h at room temperature.
Young male Wistar rats with an average body weight of 125-150 g were purchased from Charles River (QC, Canada), housed in light- and temperature-controlled rooms, and fed a standard diet. The maintenance and use of animals were in accordance with the Canadian Council of Animal Care Guidelines.
Bone defects were drilled in the mid-diaphysis of the femur. The holes were made using a low speed dental drill (2.3 mm in diameter) with copious saline irrigation. Pre-hardened CPC rods were placed into the holes using gentle pressure. Every rat received two implants, a control rod (paste) in one femur and a rod (paste) containing Bafilomycin A1 in another femur. The animals were observed daily throughout the implantation period.
After desired time in vivo, the animals were sacrificed, and the femurs were removed. The femurs were then exposed to a fixative solution for 48 h, decalcified in a 1:1 mixture of 45% formic acid and 20% sodium citrate, dehydrated and embedded in low-melting-point paraffin. Serial sections (6 μm thick) perpendicular to the long axis of the implant were obtained using a hard tissue Spencer 820 microtome. Sample sections were stained with hematoxylin-eosin (H&E) and Mason's trichrome stains. Representative sections were also tested for the presence of tartrate resistant acid phosphatase (TRAP) enzyme, characteristic of osteoclasts, to determine the identity of the cells at the material/bone interface.

osteoclast proton pump = experiment: Calcibon cement rods doped with Panto IV implanted in femur of young Wistar rats, histology; type: in vivo, rat; conditions: 4 mg Panto IV per mL neutral phosphate solution per 500 mg Calcibon, 10 days
Method: Experiments with a commercially available proton pump inhibitor, sodium pantoprazole sold as Panto IV®, were performed in healthy young Wistar rats.
Although Panto IV is highly specific for the proton pumps of the parietal cells, it was hypothesized that it may non-specifically affect other proton pumps, including the osteoclast proton pump. A commercially available calcium phosphate material, Calcibon, was also used which is less resorbable than the previously used CAP to determine whether the strategy for stimulating local bone mass can be used with other materials.
The CAP material used was Calcibon provided by the Merck Biomaterials/Biomet company. The concentration used was 4 mg Panto IV per/mL of neutral phosphate solution per 500 mg of CAP powder used to prepare the cement. The cement doped with the PPI was then allowed to set, as described previously. The pre-set rods were implanted in young Wistar rats according to the same procedure as described previously.

SMILES | solubility in DMSO [1] | bone formation around the material doped with PPI (trend) (osteoclasts [2]) | resorption of the material doped with PPI (trend) (osteoclasts [2]) | resorption of implant in comparison to control material (osteoclasts [3]; throughout 4-month in vivo period) | local bone mass around implant (osteoclasts [3]; up to 4 months) | control of CAP cement resorption (dose range study outcome) (osteoclasts [4]; 1.61×10^−4 M Bafilomycin A1 in liquid phase (DMSO solvent), rat femur implant) | amount of new bone surrounding the implant versus control cement (osteoclasts [4]; 1.61×10^−4 M, all specimens studied, young male Wistar rats) | resorption rate of CAP cement in comparison to controls (osteoclasts [4]; 1.61×10^−4 M, histology, young male Wistar rats) | formation of osteoclastic cutting cones into the material (osteoclasts [4]; 1.61×10^−4 M, tissue/material interface) | density of new bone surrounding the cement versus control (osteoclasts [4]; 1.61×10^−4 M, young male Wistar rats) | bone healing around the implant (osteoclasts [4]; highest concentration 2.0×10^−3 M Bafilomycin A1 in liquid phase (methanol solvent), rat femur implant) | response of CAP implanted as paste (resorption, new bone) (osteoclasts [4]; injectable paste, 14 days after implantation, rat femur) | histology / resorption of cement versus control (osteoclasts [4]; lowest concentration 1.61×10^−5 M Bafilomycin A1 in liquid phase (DMSO solvent), rat femur implant) | reparative bone mass surrounding the implant versus control (osteoclast proton pump)
CO/C1=C\C(C)=C\[C@@H](C)[C@@H](O)[C@@H](C)C/C(C)=C/C=C/[C@H](OC)[C@@H]([C@@H](C)[C@@H](O)[C@H](C)[C@@]2(O)C[C@@H](O)[C@H](C)[C@@H](C(C)C)O2)OC1=O [Bafilomycin A1] | solubility of Bafilomycin A1 in DMSO was exceeded | increased bone formation | reduced resorption | reduction of the resorption | increased local bone mass | found to work very well | consistently surrounded by more bone than the control cements | decreased the resorption rate | did not form “cutting cones” | appeared to be denser than the bone around the controls | the bone would not heal around the implant | showed the same response as that observed for the pre-set cements | did not differ in histology | 
COc1ccnc(Cc2nc3cc(OC(F)F)ccc3[nH]2)c1OC [Panto IV, 5-difluoromethoxy-2-[(3,4-dimethoxy-2-pyridinyl)methyl]-1H-benzimidazole] |  |  |  |  |  |  |  |  |  |  |  |  |  | surrounded by higher reparative bone mass than the control
